Reference: patent US9029325B2, “Amylin analogues and pharmaceutical compositions thereof” (Novo Nordisk A/S, priority 2011, dated 2015)
Starred links: 1 amine or outer side, 2 acyl side, 3 side chain; linkers in the order of their positions; H or OH if unused. Positions of bridges follow the written chain, without caps; N, C: chain ends. Residues, ends and D or L forms follow the SMILES beside them. *: point of attachment. C20 diacid = O=C(O)CCCCCCCCCCCCCCCCCCC(=O)*; γGlu = O=C(O)[C@H](CCC(=O)[*:2])N[*:1]

Tests used:
[1] = Assay (I) efficacy testing on appetite (food intake), ad libitum fed rat model; type: in vivo, Sprague Dawley (SD) rats; conditions: 3 nmol/kg
In short: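 Single ip, po or sc dosing (0.01-3 mg/kg, by body weight) at the start of the dark phase, in individually housed Sprague Dawley rats of 200-250 g with free food and water. Intake was logged per rat each hour to 7 h, then at 24 h (occasionally 48 h), against a vehicle group; outliers removed by Grubbs test.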

[2] = Assay (III) ThT fibrillation assay for physical stability; type: physicochemical; conditions: for Th T pH 4.0 lag time (h): 37° C., orbital shaking 960 rpm; for ThT pH 4.0 lag time: Table 9
In short: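 Freshly prepared samples, pH adjusted with NaOH and HClO4 or HCl, received ThT at 1 μM final and were incubated at 37° C with orbital shaking at 960 rpm. Fluorescence (ex 444 nm, em 485 nm) was read every 20 minutes; […], with polypeptide concentration by reverse HPLC before and after.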

| Th T pH 4.0 lag time (h) [2] | ThT pH 4.0 lag time [2] | Compound | Food intake reduction 0-24 h 3 nmol/kg (%) [1] | Food intake reduction 24-48 h 3 nmol/kg (%) [1] |
| --- | --- | --- | --- | --- |
| >45 h | >45 hr | CC[C@H](C)[C@H](NC(=O)[C@@H]1CCCN1C(=O)CNC(=O)[C@H](Cc1ccccc1)NC(=O)[C@H](CC(N)=O)NC(=O)[C@H](CC(N)=O)NC(=O)[C@H](CO)NC(=O)[C@H](CO)NC(=O)[C@H](Cc1c[nH]cn1)NC(=O)[C@H](CCCNC(=N)N)NC(=O)[C@H](CC(C)C)NC(=O)[C@H](Cc1ccccc1)NC(=O)[C@H](CCC(=O)O)NC(=O)[C@H](C)NC(=O)[C@H](CC(C)C)NC(=O)[C@H](CCCNC(=N)N)NC(=O)[C@H](CCC(N)=O)NC(=O)[C@@H](NC(=O)[C@H](C)NC(=O)[C@@H]1CSSC[C@H](NC(=O)[C@H](CCC(=O)O)NC(=O)[C@H](CCCNC(=N)N)NC(=O)[C@H](CCC(=O)O)NC(=O)CC[C@H](NC(=O)CCCCCCCCCCCCCCCCCCC(=O)O)C(=O)O)C(=O)N[C@@H](CC(N)=O)C(=O)N[C@@H]([C@@H](C)O)C(=O)N[C@@H](C)C(=O)N[C@@H]([C@@H](C)O)C(=O)N1)[C@@H](C)O)C(=O)N[C@@H](CC(C)C)C(=O)N1CCC[C@H]1C(=O)N1CCC[C@H]1C(=O)N[C@H](C(=O)N[C@@H](CC(N)=O)C(=O)N[C@H](C(=O)NCC(=O)N[C@@H](CO)C(=O)N[C@@H](CC(N)=O)C(=O)N[C@H](C(=O)N1CCC[C@H]1C(N)=O)[C@@H](C)O)C(C)C)[C@@H](C)O [Example 124, N-alpha-[(S)-4-Carboxy-4-(19-carboxynonadecanoylamino)butyryl]-Glu-Arg-[Glu1, Glu14, Arg17, Pro37]-pramlintide] ({C20 diacid-γGlu}-ERECNTATCATQRLAEFLRHSSNNFGPILPPTNVGSNTP-NH2; disulfide 4-9) | – | – |
| >45 h | >45 hr | CC[C@H](C)[C@H](NC(=O)[C@@H]1CCCN1C(=O)CNC(=O)[C@H](Cc1ccccc1)NC(=O)[C@H](CCC(N)=O)NC(=O)[C@H](CCC(N)=O)NC(=O)[C@H](CO)NC(=O)[C@H](CO)NC(=O)[C@H](Cc1c[nH]cn1)NC(=O)[C@H](CCCNC(=N)N)NC(=O)[C@H](CC(C)C)NC(=O)[C@H](Cc1ccccc1)NC(=O)[C@H](CCC(=O)O)NC(=O)[C@H](C)NC(=O)[C@H](CC(C)C)NC(=O)[C@H](CCCNC(=N)N)NC(=O)[C@H](CCC(N)=O)NC(=O)[C@@H](NC(=O)[C@H](C)NC(=O)[C@@H]1CSSC[C@H](NC(=O)[C@H](CCC(=O)O)NC(=O)[C@H](CCCNC(=N)N)NC(=O)[C@H](CCC(=O)O)NC(=O)CC[C@H](NC(=O)CCCCCCCCCCCCCCCCCCC(=O)O)C(=O)O)C(=O)N[C@@H](CC(N)=O)C(=O)N[C@@H]([C@@H](C)O)C(=O)N[C@@H](C)C(=O)N[C@@H]([C@@H](C)O)C(=O)N1)[C@@H](C)O)C(=O)N[C@@H](CC(C)C)C(=O)N1CCC[C@H]1C(=O)N1CCC[C@H]1C(=O)N[C@H](C(=O)N[C@@H](CCC(N)=O)C(=O)N[C@H](C(=O)NCC(=O)N[C@@H](CO)C(=O)N[C@@H](CCC(N)=O)C(=O)N[C@H](C(=O)N1CCC[C@H]1C(N)=O)[C@@H](C)O)C(C)C)[C@@H](C)O [Example 164, N-alpha-[(S)-4-Carboxy-4-(19-carboxynonadecanoylamino)butyryl]-Glu-Arg-[Glu1, Glu14, Arg17, Gln21, Gln22, Gln31, Gln35, Pro37]-pramlintide] ({C20 diacid-γGlu}-ERECNTATCATQRLAEFLRHSSQQFGPILPPTQVGSQTP-NH2; disulfide 4-9 (inferred); C-terminus assumed) | – | – |

The next lines start with the molecule.

| Compound | Th T pH 4.0 lag time (h) [2] | ThT pH 4.0 lag time [2] | Food intake reduction 0-24 h 3 nmol/kg (%) [1] | Food intake reduction 24-48 h 3 nmol/kg (%) [1] |
| --- | --- | --- | --- | --- |
| CC[C@H](C)[C@H](NC(=O)[C@@H]1CCCN1C(=O)CNC(=O)[C@H](Cc1ccccc1)NC(=O)[C@H](CC(N)=O)NC(=O)[C@H](CC(N)=O)NC(=O)[C@H](CO)NC(=O)[C@H](CO)NC(=O)[C@H](Cc1c[nH]cn1)NC(=O)[C@H](Cc1c[nH]cn1)NC(=O)[C@H](CC(C)C)NC(=O)[C@H](Cc1ccccc1)NC(=O)[C@H](CCC(=O)O)NC(=O)[C@H](C)NC(=O)[C@H](CC(C)C)NC(=O)[C@H](CCCNC(=N)N)NC(=O)[C@H](CCC(N)=O)NC(=O)[C@@H](NC(=O)[C@H](C)NC(=O)[C@@H]1CSSC[C@H](NC(=O)[C@H](CCCNC(=N)N)NC(=O)CNC(=O)CC[C@H](NC(=O)CCCCCCCCCCCCCCCCCCC(=O)O)C(=O)O)C(=O)N[C@@H](CC(N)=O)C(=O)N[C@@H]([C@@H](C)O)C(=O)N[C@@H](C)C(=O)N[C@@H]([C@@H](C)O)C(=O)N1)[C@@H](C)O)C(=O)N[C@@H](CC(C)C)C(=O)N1CCC[C@H]1C(=O)N1CCC[C@H]1C(=O)N[C@H](C(=O)N[C@@H](CC(N)=O)C(=O)N[C@H](C(=O)NCC(=O)N[C@@H](CO)C(=O)N[C@@H](CC(N)=O)C(=O)N[C@H](C(=O)N1CCC[C@H]1C(N)=O)[C@@H](C)O)C(C)C)[C@@H](C)O [Example 101, N-alpha-[(S)-4-Carboxy-4-(19-carboxynonadecanoylamino)butyryl]-Gly-[Arg1, Glu14, His17, Pro37]-pramlintide] ({C20 diacid-γGlu}-GRCNTATCATQRLAEFLHHSSNNFGPILPPTNVGSNTP-NH2; disulfide 3-8 (inferred); C-terminus assumed) | >45 h | >45 hr | 70% | 90% |
| CC[C@H](C)[C@H](NC(=O)[C@@H]1CCCN1C(=O)CNC(=O)[C@H](Cc1ccccc1)NC(=O)[C@H](CC(N)=O)NC(=O)[C@H](CC(N)=O)NC(=O)[C@H](CO)NC(=O)[C@H](CO)NC(=O)[C@H](Cc1c[nH]cn1)NC(=O)[C@H](Cc1c[nH]cn1)NC(=O)[C@H](CC(C)C)NC(=O)[C@H](Cc1ccccc1)NC(=O)[C@H](CCC(=O)O)NC(=O)[C@H](C)NC(=O)[C@H](CC(C)C)NC(=O)[C@H](CCCNC(=N)N)NC(=O)[C@H](CCC(N)=O)NC(=O)[C@@H](NC(=O)[C@H](C)NC(=O)[C@@H]1CSSC[C@H](NC(=O)[C@H](CCCCN)NC(=O)CC[C@H](NC(=O)CCCCCCCCCCCCCCCCCCC(=O)O)C(=O)O)C(=O)N[C@@H](CC(N)=O)C(=O)N[C@@H]([C@@H](C)O)C(=O)N[C@@H](C)C(=O)N[C@@H]([C@@H](C)O)C(=O)N1)[C@@H](C)O)C(=O)N[C@@H](CC(C)C)C(=O)N1CCC[C@H]1C(=O)N1CCC[C@H]1C(=O)N[C@H](C(=O)N[C@@H](CC(N)=O)C(=O)N[C@H](C(=O)NCC(=O)N[C@@H](CO)C(=O)N[C@@H](CC(N)=O)C(=O)N[C@H](C(=O)N1CCC[C@H]1C(N)=O)[C@@H](C)O)C(C)C)[C@@H](C)O [Example 52, N-alpha-[(S)-4-Carboxy-4-(19-carboxynonadecanoylamino)butyryl]-[Glu14, His17, Pro37]-pramlintide] ({C20 diacid-γGlu}-KCNTATCATQRLAEFLHHSSNNFGPILPPTNVGSNTP-NH2; disulfide 2-7) | >45 h | >45 hr | 62% | 74% |
| CC[C@H](C)[C@H](NC(=O)[C@@H]1CCCN1C(=O)CNC(=O)[C@H](Cc1ccccc1)NC(=O)[C@H](CC(N)=O)NC(=O)[C@H](CC(N)=O)NC(=O)[C@H](CO)NC(=O)[C@H](CO)NC(=O)[C@H](Cc1c[nH]cn1)NC(=O)[C@H](CCCNC(=N)N)NC(=O)[C@H](CC(C)C)NC(=O)[C@H](Cc1ccccc1)NC(=O)[C@H](CCC(=O)O)NC(=O)[C@H](C)NC(=O)[C@H](CC(C)C)NC(=O)[C@H](CCCNC(=N)N)NC(=O)[C@H](CCC(N)=O)NC(=O)[C@@H](NC(=O)[C@H](C)NC(=O)[C@@H]1CSSC[C@H](NC(=O)[C@H](CCCCN)NC(=O)CC[C@H](NC(=O)CCCCCCCCCCCCCCCCCCC(=O)O)C(=O)O)C(=O)N[C@@H](CC(N)=O)C(=O)N[C@@H]([C@@H](C)O)C(=O)N[C@@H](C)C(=O)N[C@@H]([C@@H](C)O)C(=O)N1)[C@@H](C)O)C(=O)N[C@@H](CC(C)C)C(=O)N1CCC[C@H]1C(=O)N1CCC[C@H]1C(=O)N[C@H](C(=O)N[C@@H](CC(N)=O)C(=O)N[C@H](C(=O)NCC(=O)N[C@@H](CO)C(=O)N[C@@H](CC(N)=O)C(=O)N[C@H](C(=O)N1CCC[C@H]1C(N)=O)[C@@H](C)O)C(C)C)[C@@H](C)O [Example 53, N-alpha-[(S)-4-Carboxy-4-(19-carboxynonadecanoylamino)butyryl]-[Glu14, Arg17, Pro37]-pramlintide] | >45 h | >45 hr | 40% | 28% |
| CC[C@H](C)[C@H](NC(=O)[C@@H]1CCCN1C(=O)CNC(=O)[C@H](Cc1ccccc1)NC(=O)[C@H](CC(N)=O)NC(=O)[C@H](CC(N)=O)NC(=O)[C@H](CO)NC(=O)[C@H](CO)NC(=O)[C@H](Cc1c[nH]cn1)NC(=O)[C@H](CCCNC(=N)N)NC(=O)[C@H](CC(C)C)NC(=O)[C@H](Cc1ccccc1)NC(=O)[C@H](CCC(=O)O)NC(=O)[C@H](C)NC(=O)[C@H](CC(C)C)NC(=O)[C@H](CCCNC(=N)N)NC(=O)[C@H](CCC(N)=O)NC(=O)[C@@H](NC(=O)[C@H](C)NC(=O)[C@@H]1CSSC[C@H](NC(=O)[C@H](Cc2c[nH]cn2)NC(=O)CC[C@H](NC(=O)CCCCCCCCCCCCCCCCCCC(=O)O)C(=O)O)C(=O)N[C@@H](CC(N)=O)C(=O)N[C@@H]([C@@H](C)O)C(=O)N[C@@H](C)C(=O)N[C@@H]([C@@H](C)O)C(=O)N1)[C@@H](C)O)C(=O)N[C@@H](CC(C)C)C(=O)N1CCC[C@H]1C(=O)N1CCC[C@H]1C(=O)N[C@H](C(=O)N[C@@H](CC(N)=O)C(=O)N[C@H](C(=O)NCC(=O)N[C@@H](CO)C(=O)N[C@@H](CC(N)=O)C(=O)N[C@H](C(=O)N1CCC[C@H]1C(N)=O)[C@@H](C)O)C(C)C)[C@@H](C)O [Example 90, N-alpha-[(S)-4-Carboxy-4-(19-carboxynonadecanoylamino)butyryl]-[His1, Glu14, Arg17, Pro37]-pramlintide] ({C20 diacid-γGlu}-HCNTATCATQRLAEFLRHSSNNFGPILPPTNVGSNTP-NH2; disulfide 2-7 (inferred); C-terminus assumed) | >45 h | >45 hr | – | – |
